Some test systems named below: HT29 colon; NCI-H460 lung; NCI/ADR-RES ovarian; OVCAR-4 ovarian; PC-3 prostate; SN12C renal; SNB-19 CNS; TK-10 renal; U251 CNS; UACC-257 melanoma.
Assay in all cases: inhibition of tumour cell growth, NCI panel, 48 h

From PubChem BioAssay (NCI) come the findings set out here.

Where “and” joins values, the source holds several entries; their conditions need not be identical. Equal values may be shown once.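 96-well plates; 48 h exposure; 5 concentrations. Endpoints by linear interpolation between flanking doses. Not reached: highest tested concentration assigned. Abbreviation: GI50, concentration required for 50% inhibition of growth. At the TGI there is no net growth.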

Regarding `c1ccc2c(c1)Nc1ccncc1S2`, the GI50 with HT29 colon is 18.4 µM; in the test with NCI-H460 lung it was 18.2 µM; in the test on NCI/ADR-RES ovarian it was 21.4 µM; with OVCAR-4 ovarian, 23.7 µM; in the test with PC-3 prostate, 27 µM; with SN12C renal it was 27.8 µM. Also, the GI50 with SNB-19 CNS is 25.7 µM; in the test on TK-10 renal it was 22.7 µM; in the test on U251 CNS, 27.2 µM; with UACC-257 melanoma, 31.1 µM. Besides, the TGI was over 100 µM in the test with HT29 colon; 49.7 µM in the test with NCI-H460 lung; over 100 µM in the test on NCI/ADR-RES ovarian; over 100 µM in the test on OVCAR-4 ovarian; over 100 µM in the test with PC-3 prostate; over 100 µM in the test on SN12C renal. The TGI in the test with SNB-19 CNS is over 100 µM; in the test on TK-10 renal, 83.4 µM; in the test on U251 CNS it was over 100 µM; with UACC-257 melanoma, over 100 µM.
Turning to `C#CCNC(=O)[C@H](CC)[C@H]1CC[C@H](C)[C@H]([C@@H](C)[C@H](O)[C@H](C)C(=O)[C@H](CC)C2O[C@]3(C=CC(=O)[C@]4(CC[C@@](C)([C@H]5CC[C@](O)(CC)[C@H](C)O5)O4)O3)[C@H](C)C[C@@H]2C)O1` (stereo not given in full), the GI50 in the test on HT29 colon is 2.26 µM; with NCI-H460 lung it was 2.55 µM; in the test on NCI/ADR-RES ovarian, 2.26 µM; in the test with OVCAR-4 ovarian, 2.91 µM; in the test on PC-3 prostate it was 2 µM; with SN12C renal, 2.29 µM. The GI50 was 2.36 µM in the test with SNB-19 CNS, 2.35 µM with TK-10 renal, 1.88 µM in the test with U251 CNS and 1.94 µM with UACC-257 melanoma. Besides, the TGI was 5.46 µM in the test with HT29 colon; 6.94 µM in the test on NCI-H460 lung; 7.72 µM in the test on NCI/ADR-RES ovarian; over 100 µM with OVCAR-4 ovarian; 8.78 µM in the test with PC-3 prostate; 6.58 µM with SN12C renal. Besides, the TGI with SNB-19 CNS came out at 7.96 µM; in the test with TK-10 renal, 7.74 µM; with U251 CNS it was 3.93 µM; with UACC-257 melanoma it was 4.88 µM.
For the compound `COC1=C(OC)C(=O)C(SC/C=C(\C)CCCC(C)CCCC(C)CCCC(C)C)=CC1=O` (stereo not given), the GI50 in the test on HT29 colon was 4.24 µM; with NCI-H460 lung it was 0.95 µM; in the test on NCI/ADR-RES ovarian, 0.784 µM; in the test on OVCAR-4 ovarian it was 1.32 µM; in the test with PC-3 prostate, 0.255 µM; in the test on SN12C renal, 0.741 µM. Moreover, the GI50 in the test on SNB-19 CNS was 1.5 µM; in the test on TK-10 renal, 2.46 µM; in the test with U251 CNS, 0.479 µM; with UACC-257 melanoma, 2.71 µM. For the same compound, the TGI with HT29 colon is over 100 µM; in the test on NCI-H460 lung, over 32.7 µM; in the test with NCI/ADR-RES ovarian, over 46.7 µM; in the test on OVCAR-4 ovarian it was over 100 µM; with PC-3 prostate it was over 100 µM; in the test on SN12C renal, over 100 µM. Further, the TGI in the test on SNB-19 CNS was over 100 µM; with TK-10 renal, over 59.4 µM; with U251 CNS it was over 100 µM; with UACC-257 melanoma it was over 100 µM.
Regarding `CCc1cccc(C)c1NC(=O)c1sc2nc3c(cc2c1N)C(=O)CCC3`, the GI50 is 0.411 µM with HT29 colon; 0.371 µM in the test with NCI-H460 lung; 0.768 µM in the test on NCI/ADR-RES ovarian; 0.78 µM with OVCAR-4 ovarian; 0.454 µM in the test with PC-3 prostate; 0.909 µM with SN12C renal. Besides, the GI50 is 0.918 µM with SNB-19 CNS, 0.774 µM in the test on TK-10 renal, 0.659 µM with U251 CNS and 12.5 µM with UACC-257 melanoma. For the same compound, the TGI was 2.3 µM with HT29 colon; 14 µM in the test on NCI-H460 lung; over 100 µM in the test on NCI/ADR-RES ovarian; over 100 µM in the test with OVCAR-4 ovarian; over 100 µM with PC-3 prostate; over 100 µM in the test on SN12C renal. The TGI was over 100 µM in the test on SNB-19 CNS, 79.6 µM in the test with TK-10 renal, over 100 µM in the test on U251 CNS and 76.1 µM in the test on UACC-257 melanoma.
`Cc1cc(N(CCCNc2ccnc3cc(Cl)ccc23)Cc2ccco2)nc(N2CCN(C)CC2)n1`: the GI50 in the test with HT29 colon is 2.73 µM; in the test with NCI-H460 lung, 3.12 µM; with NCI/ADR-RES ovarian, 4.13 µM; in the test on OVCAR-4 ovarian it was 3.59 µM; in the test with PC-3 prostate, 4.12 µM; with SN12C renal, 4.24 µM. Moreover, the GI50 with SNB-19 CNS is 5 µM; in the test with TK-10 renal, 2.08 µM; with U251 CNS, 2.67 µM; with UACC-257 melanoma, 1.97 µM. Further, the TGI came out at 11 µM in the test on HT29 colon; 11.4 µM in the test on NCI-H460 lung; 18.8 µM in the test on NCI/ADR-RES ovarian; 19.6 µM with OVCAR-4 ovarian; 17.3 µM in the test with PC-3 prostate; 17 µM with SN12C renal. The TGI with SNB-19 CNS amounted to 16.9 µM; in the test with TK-10 renal it was 4.82 µM; with U251 CNS, 6.92 µM; in the test on UACC-257 melanoma, 3.8 µM.
For `O=C1OC(C(O)CO)C(O)=C1O` (stereo not given), the GI50 in the test with HT29 colon was 2000 µM and 1870 µM; in the test on NCI-H460 lung, over 10000 µM; with NCI/ADR-RES ovarian, 2450 µM; in the test on OVCAR-4 ovarian, 1840 µM and 1970 µM; in the test with PC-3 prostate, 2190 µM and > 4180 µM; with SN12C renal, 1460 µM and 1540 µM. Further, the GI50 with SNB-19 CNS is over 10000 µM; with TK-10 renal it was 9040 µM and > 4840 µM; with U251 CNS, 1910 µM and 1840 µM; in the test with UACC-257 melanoma, 1870 µM and > 3610 µM. The TGI was 4070 µM and 3750 µM with HT29 colon; over 10000 µM in the test with NCI-H460 lung; 5930 µM and > 6010 µM in the test on NCI/ADR-RES ovarian; 3520 µM and 3940 µM with OVCAR-4 ovarian; 5670 µM and > 5820 µM with PC-3 prostate; 2810 µM and 3070 µM in the test on SN12C renal. For the same compound, the TGI in the test on SNB-19 CNS is over 10000 µM; in the test on TK-10 renal it was over 10000 µM; in the test with U251 CNS, 3400 µM and 3550 µM; in the test with UACC-257 melanoma it was 3730 µM and > 5150 µM.
